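In this assay, cells in 96-well plates receive the compound at five concentrations for 48 hours. Endpoints are linearly interpolated between the surrounding concentrations. GI50: concentration for 50% inhibition of growth. Definition used: TGI = concentration required for complete inhibition of growth.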
Legend:
Experiment in all cases: growth of human tumour cells (NCI), 48 h
[1] = test system: A498 renal
[2] = test system: CAKI-1 renal
[3] = test system: HOP-92 NSCLC
[4] = test system: OVCAR-3 ovarian
[5] = test system: OVCAR-8 ovarian
[6] = test system: SK-MEL-2 melanoma
[7] = test system: UACC-62 melanoma
[8] = test system: HCT-15 colon
[9] = test system: HL-60(TB) leukemia
[10] = test system: HS 578T breast

With `Cn1cnc([N+](=O)[O-])c1Sc1n[nH]c(-c2ccc(Cl)cc2)n1` the TGI [1] was 56.1 µM, the TGI [2] was 78.8 µM and the TGI [3] was 37.6 µM. For the same compound, the TGI [4] was 40.4 µM, the TGI [5] was 32.4 µM and the TGI [6] was 29.9 µM. The TGI [7] was 28.4 µM.
`Oc1nc(N2CCOCC2)sc1/C=C1\C=Nc2ccccc21` gave a GI50 [1] greater than 100 µM, a TGI [1] greater than 100 µM and a GI50 [2] greater than 100 µM. The TGI [2] was greater than 100 µM, the GI50 [8] was greater than 100 µM and the TGI [8] was greater than 100 µM. The GI50 [9] was greater than 100 µM, the TGI [9] was greater than 100 µM and the GI50 [10] was greater than 100 µM. It also gave a TGI [10] greater than 100 µM, a GI50 [4] greater than 100 µM and a TGI [4] greater than 100 µM. The GI50 [5] was greater than 100 µM, the TGI [5] was greater than 100 µM and the GI50 [6] was greater than 100 µM. For the same compound, the TGI [6] was greater than 100 µM, the GI50 [7] was greater than 100 µM and the TGI [7] was greater than 100 µM.
`N#Cc1c(N)nc2c(c1-c1ccc(Cl)cc1)COc1ccc(F)cc1-2` gave a GI50 [1] of 22.3 µM, a TGI [1] of 52.3 µM and a GI50 [2] of 25.2 µM. For the same compound, the TGI [2] was 66.3 µM, the GI50 [8] was 24.1 µM and the TGI [8] was 84.7 µM. It also gave a GI50 [9] of 26.5 µM, a TGI [9] of 53.4 µM and a GI50 [3] of 31.6 µM. For the same compound, the TGI [3] was greater than 100 µM, the GI50 [4] was 23.2 µM and the TGI [4] was 50.2 µM. For the same compound, the GI50 [5] was 32.5 µM, the TGI [5] was greater than 100 µM and the GI50 [6] was 19 µM. For the same compound, the TGI [6] was 64.2 µM, the GI50 [7] was 15.1 µM and the TGI [7] was 34.2 µM.
`ClCc1ccccc1Cn1cnc2nc(Cl)nc(Cl)c21` was tested, and the GI50 [1] was 2.13 µM, the TGI [1] was 4.83 µM and the GI50 [2] was 7.16 µM. The TGI [2] was 18.5 µM, the GI50 [8] was 0.197 µM and the TGI [8] was 0.434 µM. For the same compound, the GI50 [9] was 1.35 µM, the TGI [9] was 8.45 µM and the GI50 [10] was 0.331 µM. It also gave a TGI [10] of 1.22 µM, a GI50 [4] of 5.29 µM and a TGI [4] of 12.3 µM. For the same compound, the GI50 [5] was 2.54 µM, the TGI [5] was 8.88 µM and the GI50 [6] was 1.89 µM. It also gave a TGI [6] of 8.59 µM, a GI50 [7] of 0.495 µM and a TGI [7] of 1.37 µM.
Compound `COC(=O)c1c2c(c(C)[n+]([O-])c1C)C(=O)C(NCc1ccccc1)=CC2=O` has a GI50 [1] of 4.72 µM, a TGI [1] of 16.1 µM and a GI50 [2] of 2.84 µM. It also gave a TGI [2] of 14.3 µM, a GI50 [8] of 1.7 µM and a TGI [8] of 4.44 µM. It also gave a GI50 [3] of 2.8 µM, a TGI [3] of 6.61 µM and a GI50 [10] of 7 µM. The TGI [10] was 82.4 µM, the GI50 [4] was 0.613 µM and the TGI [4] was 3.67 µM. It also gave a GI50 [5] of 2.32 µM, a TGI [5] of 8.73 µM and a GI50 [6] of 2.63 µM. The TGI [6] was 9.48 µM, the GI50 [7] was 1.8 µM and the TGI [7] was 3.56 µM.
`O/N=C1/CCCC/C1=C\c1ccc(Cl)c(Cl)c1` was tested, and the TGI [1] was 84.5 µM, the TGI [2] was 99.7 µM and the TGI [8] was greater than 100 µM. For the same compound, the TGI [9] was 23 µM, the TGI [4] was 49.7 µM and the TGI [5] was greater than 100 µM. For the same compound, the TGI [7] was greater than 100 µM.
For `NC1=NN(c2ccccc2)C(=O)C1C(=O)C(=O)Nc1ccccc1` (configuration not stated), the TGI [1] was greater than 100 µM, the TGI [2] was greater than 100 µM and the TGI [8] was greater than 100 µM. It also gave a TGI [9] greater than 100 µM, a TGI [3] greater than 100 µM and a TGI [4] greater than 100 µM. The TGI [5] was greater than 100 µM, the TGI [6] was greater than 100 µM and the TGI [7] was greater than 100 µM.
`Clc1ccc(-c2cnc3c(-c4ccnc(N5CCNCC5)c4)cnn3c2)cc1` gave a GI50 [1] of 1.65 µM, a TGI [1] of 3.06 µM and a GI50 [2] of 1.9 µM. The TGI [2] was 3.51 µM, the GI50 [8] was 2.7 µM and the TGI [8] was 5.18 µM. It also gave a GI50 [9] of 1.25 µM, a TGI [9] of 3.26 µM and a GI50 [4] of 1.96 µM. The TGI [4] was 3.42 µM, the GI50 [5] was 2.21 µM and the TGI [5] was 4.31 µM. The GI50 [6] was 0.561 µM, the TGI [6] was 1.69 µM and the GI50 [7] was 2.06 µM. For the same compound, the TGI [7] was 3.91 µM.
Compound `COc1ccc(/C=C/c2onc3c(=O)n(C)nc(-c4ccccc4)c23)cc1` has a TGI [2] of 82.2 µM, a TGI [8] greater than 100 µM and a TGI [9] greater than 100 µM. It also gave a TGI [3] of 80.5 µM, a TGI [5] greater than 100 µM and a TGI [7] greater than 100 µM.
